Assay results as given in patent publication US9980965B2, “Treatment of autoimmune disease” (MingSight Pharmaceuticals, Inc., priority 2014, dated 2018).
Where two headings read alike, the source gives them in different places. Marks after values point to notes of the source that are not given here.

Experiments:
[1] = target: Human PKC betaII (Homo sapiens, UniProt P05771); assay: In vitro PKC inhibition, PKC betaII; assay type: biochemical
[2] = target: Human PKC betaI (Homo sapiens, UniProt P05771); assay: In vitro PKC inhibition, PKC betaI; assay type: biochemical
Chain of Human PKC betaI (P05771 whole entry): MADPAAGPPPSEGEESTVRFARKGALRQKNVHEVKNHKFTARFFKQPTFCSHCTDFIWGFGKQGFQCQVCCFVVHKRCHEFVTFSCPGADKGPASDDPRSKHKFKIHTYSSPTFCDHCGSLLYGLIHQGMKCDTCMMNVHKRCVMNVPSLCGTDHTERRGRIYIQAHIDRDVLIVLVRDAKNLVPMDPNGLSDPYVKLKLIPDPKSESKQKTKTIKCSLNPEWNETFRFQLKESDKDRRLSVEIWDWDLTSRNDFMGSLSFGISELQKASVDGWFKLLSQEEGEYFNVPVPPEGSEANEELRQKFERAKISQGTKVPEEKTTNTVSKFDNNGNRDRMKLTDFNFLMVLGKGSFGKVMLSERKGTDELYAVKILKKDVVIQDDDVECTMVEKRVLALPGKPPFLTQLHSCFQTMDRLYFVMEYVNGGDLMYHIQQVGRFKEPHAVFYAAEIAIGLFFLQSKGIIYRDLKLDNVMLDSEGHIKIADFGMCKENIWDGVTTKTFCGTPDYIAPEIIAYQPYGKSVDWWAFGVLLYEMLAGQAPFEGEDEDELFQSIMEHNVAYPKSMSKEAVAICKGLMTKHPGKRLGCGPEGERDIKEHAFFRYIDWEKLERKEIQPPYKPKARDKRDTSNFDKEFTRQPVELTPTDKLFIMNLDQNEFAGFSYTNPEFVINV

[3] = target: Human PKC gamma (Homo sapiens, UniProt P05129); assay: In vitro PKC inhibition, PKC gamma; assay type: biochemical
Excerpt: (§1) The methods for these determinations have been described (Grant, et al. 2010, Eur J Pharmacol. 627:16-25).

[4] = target: T1, Human PKC mu (Homo sapiens, UniProt Q15139); assay: In vitro PKC inhibition, PKC mu; assay type: biochemical
T1 sequence (Q15139 1-912): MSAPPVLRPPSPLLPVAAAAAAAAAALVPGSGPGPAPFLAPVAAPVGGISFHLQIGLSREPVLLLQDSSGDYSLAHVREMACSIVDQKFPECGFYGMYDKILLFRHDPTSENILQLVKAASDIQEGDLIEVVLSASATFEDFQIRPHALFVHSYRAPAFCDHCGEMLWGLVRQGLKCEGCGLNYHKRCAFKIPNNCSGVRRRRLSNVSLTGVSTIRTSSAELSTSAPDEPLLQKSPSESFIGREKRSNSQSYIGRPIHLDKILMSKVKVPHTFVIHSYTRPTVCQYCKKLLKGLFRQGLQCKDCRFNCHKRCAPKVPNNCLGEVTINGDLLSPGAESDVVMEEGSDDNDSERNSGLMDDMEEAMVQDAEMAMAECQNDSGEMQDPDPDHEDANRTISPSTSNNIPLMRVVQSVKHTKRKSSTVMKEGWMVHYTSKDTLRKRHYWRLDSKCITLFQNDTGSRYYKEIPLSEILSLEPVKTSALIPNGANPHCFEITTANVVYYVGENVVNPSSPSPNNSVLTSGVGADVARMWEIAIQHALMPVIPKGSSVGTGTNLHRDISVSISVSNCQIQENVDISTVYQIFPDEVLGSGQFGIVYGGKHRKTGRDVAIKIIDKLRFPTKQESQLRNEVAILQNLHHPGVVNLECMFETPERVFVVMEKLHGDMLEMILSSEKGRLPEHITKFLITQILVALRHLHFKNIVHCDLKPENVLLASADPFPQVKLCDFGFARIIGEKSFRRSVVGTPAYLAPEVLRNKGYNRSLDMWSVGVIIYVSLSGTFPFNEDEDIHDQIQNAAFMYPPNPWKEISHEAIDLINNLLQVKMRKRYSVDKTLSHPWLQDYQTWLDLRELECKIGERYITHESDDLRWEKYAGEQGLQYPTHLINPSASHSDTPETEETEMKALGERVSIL
Excerpt: as §1

[5] = target: Human PKC delta (Homo sapiens, UniProt Q05655); assay: In vitro PKC inhibition, PKC delta; assay type: biochemical
Chain of Human PKC delta (Q05655 whole entry): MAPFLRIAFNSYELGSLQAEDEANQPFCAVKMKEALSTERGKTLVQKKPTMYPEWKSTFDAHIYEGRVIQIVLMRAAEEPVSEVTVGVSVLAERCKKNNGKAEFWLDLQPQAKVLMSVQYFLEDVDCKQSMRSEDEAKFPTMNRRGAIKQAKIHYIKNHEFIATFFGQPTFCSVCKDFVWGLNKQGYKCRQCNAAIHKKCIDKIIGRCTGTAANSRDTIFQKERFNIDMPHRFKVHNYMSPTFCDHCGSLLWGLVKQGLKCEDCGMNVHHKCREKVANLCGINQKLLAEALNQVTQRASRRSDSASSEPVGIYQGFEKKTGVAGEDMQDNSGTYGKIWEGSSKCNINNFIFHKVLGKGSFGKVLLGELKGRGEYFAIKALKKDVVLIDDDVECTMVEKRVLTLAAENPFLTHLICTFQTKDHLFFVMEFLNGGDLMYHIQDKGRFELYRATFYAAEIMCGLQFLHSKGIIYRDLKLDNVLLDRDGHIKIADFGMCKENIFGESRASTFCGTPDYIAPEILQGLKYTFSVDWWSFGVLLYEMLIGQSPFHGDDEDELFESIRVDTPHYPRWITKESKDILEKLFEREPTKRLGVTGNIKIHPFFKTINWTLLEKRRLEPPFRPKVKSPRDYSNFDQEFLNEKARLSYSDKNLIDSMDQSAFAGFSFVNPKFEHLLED
Excerpt: as §1

[6] = target: T2, Human PKC iota (Homo sapiens, UniProt P41743); assay: In vitro PKC inhibition, PKC iota; assay type: biochemical
T2 sequence (P41743 1-596): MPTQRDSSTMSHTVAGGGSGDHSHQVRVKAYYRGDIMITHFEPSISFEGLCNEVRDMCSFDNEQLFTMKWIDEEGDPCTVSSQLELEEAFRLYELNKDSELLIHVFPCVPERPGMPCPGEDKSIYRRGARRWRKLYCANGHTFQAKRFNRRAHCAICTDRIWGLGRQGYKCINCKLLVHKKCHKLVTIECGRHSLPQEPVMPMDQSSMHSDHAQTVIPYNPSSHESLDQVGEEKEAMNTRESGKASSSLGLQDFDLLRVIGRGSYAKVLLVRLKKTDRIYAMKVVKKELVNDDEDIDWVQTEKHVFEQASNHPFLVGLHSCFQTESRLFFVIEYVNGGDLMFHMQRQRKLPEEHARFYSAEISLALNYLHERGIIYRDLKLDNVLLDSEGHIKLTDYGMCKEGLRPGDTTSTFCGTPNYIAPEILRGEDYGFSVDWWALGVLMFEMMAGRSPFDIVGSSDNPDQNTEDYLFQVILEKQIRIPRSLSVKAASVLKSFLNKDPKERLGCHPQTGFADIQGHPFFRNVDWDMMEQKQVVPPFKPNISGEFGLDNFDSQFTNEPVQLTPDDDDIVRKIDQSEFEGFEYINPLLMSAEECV
Excerpt: as §1

[7] = tested on: pSHP2 (PKCβ cell assay); assay: pSHP2 (PKCβ cell assay); assay type: cell-based
Excerpt: as §1

[8] = Separate pharmacokinetics experiments in mice; assay type: in vivo; settings: 60 mg/kg dose, oral
[9] = tested on: EAE induced by MBP69-88/CFA immunization and pertussis toxin injection; assay type: in vivo, Lewis rats; settings: for Median day of onset (all rats) / Mean day of onset +/− SEM (sick rats) / EAE incidence (%): p.o.; for Median day of onset (all rats): vehicle 9.0; for Mean day of onset +/− SEM (sick rats): vehicle 9.3 +/− 0.6; for EAE incidence (%): vehicle 100.0%
[10] = 15 and 30 mg/kg BID, compared to the vehicle control group

Chain of Human PKC betaII (P05771 1-673 isoform P05771-2): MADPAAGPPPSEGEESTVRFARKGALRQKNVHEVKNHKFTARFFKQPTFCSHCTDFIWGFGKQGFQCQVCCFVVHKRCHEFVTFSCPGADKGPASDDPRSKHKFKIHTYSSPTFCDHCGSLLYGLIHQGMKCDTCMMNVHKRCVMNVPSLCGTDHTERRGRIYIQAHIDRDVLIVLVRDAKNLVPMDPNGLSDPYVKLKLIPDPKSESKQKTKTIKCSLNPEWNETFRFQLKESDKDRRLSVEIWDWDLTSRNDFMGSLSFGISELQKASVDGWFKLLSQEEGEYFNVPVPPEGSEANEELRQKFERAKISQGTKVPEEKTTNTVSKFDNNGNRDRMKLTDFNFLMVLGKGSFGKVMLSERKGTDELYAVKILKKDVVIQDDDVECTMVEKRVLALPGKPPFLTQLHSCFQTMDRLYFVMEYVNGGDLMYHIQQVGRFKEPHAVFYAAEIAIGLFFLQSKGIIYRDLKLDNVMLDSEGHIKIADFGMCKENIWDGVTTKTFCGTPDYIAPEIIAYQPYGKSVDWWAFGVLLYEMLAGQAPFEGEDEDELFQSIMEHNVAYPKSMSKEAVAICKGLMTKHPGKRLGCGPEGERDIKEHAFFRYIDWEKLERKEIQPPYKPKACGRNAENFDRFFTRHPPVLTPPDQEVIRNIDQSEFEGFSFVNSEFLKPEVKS

For `Cc1ncc(F)c(Nc2n[nH]c3c2CN(C(=O)N2C[C@@H](C)N(CC4CCOCC4)C[C@@H]2C)C3(C)C)n1` [Compound A, 5-{[(2S,5R)-2,5-Dimethyl-4-(tetrahydro-2H-pyran-4-ylmethyl)piperazin-1-yl]carbonyl}-N-(5-fluoro-2-methylpyrimidin-4-yl)-6,6-dimethyl-1,4,5,6-tetrahydropyrrolo[3,4-c]pyrazol-3-amine], the IC50 [1] was 7.6 nM, the Ki ([1]; recombinant PKC beta (betaII in Table 1)) was 5.3 nM and the IC50 [2] was 8.1 nM. For the same compound, the IC50 [3] was 57.5 nM, the IC50 [4] was 314 nM and the IC50 [5] was greater than 1000 nM. The “inhibition of PKC delta (in words)” value [5] was “does not significantly inhibit”, the IC50 [6] was greater than 1000 nM and the IC50 [7] was 9.8 nM. The exposure in mice [8] was “unexpectedly low and insufficient exposure”, the “Median day of onset (all rats)” value ([9]; 7.5 mg/kg, BID) was 9.0 days and the “Mean day of onset +/− SEM (sick rats)” value ([9]; 7.5 mg/kg, BID) was 9.0 ± 0.5 days. For the same compound, the “EAE incidence (%)” value ([9]; 7.5 mg/kg, BID) was 100.0%, the “Median day of onset (all rats)” value ([9]; 15 mg/kg, BID) was 8.0 days and the “Mean day of onset +/− SEM (sick rats)” value ([9]; 15 mg/kg, BID) was 8.5 ± 0.4 days. For the same compound, the “EAE incidence (%)” value ([9]; 15 mg/kg, BID) was 100.0%, the “Mean day of onset +/− SEM (sick rats)” value ([9]; 30 mg/kg, BID) was 9.0 ± 0.9 days and the “EAE incidence (%)” value ([9]; 30 mg/kg, BID, p < 0.05 vs. vehicle) was 50.0%*. For the same compound, the “clinical score (EAE)” value ([9]; 7.5, 15 and 30 mg/kg BID) was “dose-dependent decrease”, the “end severity (FIG. 5)” value [9, 10] was “significantly reduced” and the “maximum EAE severity (FIG. 5)” value [9, 10] was “significantly reduced”. The “EAE incidence (in words)” value ([9]; highest dose (30 mg/kg BID)) was “significantly reduced” and the “efficacy compared with fingolimod” value ([9]; highest dose employed (30 mg/kg BID) vs. FTY720 0.5 mg/kg QD) was “appeared superior to fingolimod”.

With `CCCCCCCCc1ccc(CCC(N)(CO)CO)cc1` [FTY720, fingolimod, reference compound] the “Median day of onset (all rats)” value ([9]; 0.5 mg/kg, QD) was 8.0 days and the “Mean day of onset +/− SEM (sick rats)” value ([9]; 0.5 mg/kg, QD) was 8.0 ± 0.3 days.
